Key:
[1] = UV-vis absorption and fluorescence spectra of thio-caged and uncaged fluorophores; format: physicochemical; details: DMSO (50 μM)
Description: Encouraged by the excellent photoactivation properties of SNile Red, Lawesson's reagent was employed to introduce thiocarbonyl moieties into several different fluorophores, such as phthalimide (PI), coumarin (Cou) and acridone (ACD), obtaining yields ranging from 20-80% (FIG. 1). Next, characterization of the spectroscopic and photochemical properties of these thiocaged fluorophores and their oxidized products using UV-vis and fluorescence spectroscopies was performed (Table 1). […] Double thiocarbonyl substitution on 4-dimethylaminophthalimide (4-DMAP, FIG. 1) produced an even larger bathochromic shift of 166 nm. […] It was hypothesized that the red-shift and enhanced absorption seen with thiocarbonyl compounds were due to the reduced energy gap between the HOMO-LUMO in these fluorophores. This is consistent with the computational results discussed below. […] To assess the efficiency of photoactivation for the various thio-caged fluorophores, UV-vis and fluorescence spectra were recorded after different irradiation times (FIGS. 4-8).
(§1) The ^1H NMR spectroscopic measurements were carried out using a Bruker-600 NMR at 600 MHz with tetramethysilane (TMS) as internal reference. Electrospray ionization (ESI) mass spectra were performed on a Bruker MicroToF ESI LC-MS System in positive-ion mode. The steady-state absorption spectra were obtained with a ThermoFisher Evolution 220 UV-Vis spectrophotometer in 1 cm path length quartz cells. Fluorescence spectra were recorded using spectrophotometer (SPEX FluoroLog-3). Quantum yield in DMSO was measured relative to the fluorescence of Rhodamine B (Φ=0.65) in ethanol or quinine sulfate (Φ=0.55) in 0.5 M·L^−1 H2SO4. FT-IR spectrum was taken on a PerkinElmer Spectrum 100 FT-IR Spectrometers. Confocal fluorescent images of living cells were performed using Nikon A1R-si Laser Scanning Confocal Microscope (Japan), equipped with lasers of 405/488/561/638 nm. STORM images were performed on a NSTORM (Nikon, Japan), featuring a CFI Apo TIRF 100× oil objective (NA 1.49) on an inverted Nikon Ti Eclipse microscope with a quad cube filter (Chroma, zt405/488/561/640 m-TRF), piezo stage, and Perfect Focus System (Nikon) for Z-stability. Light source are hand-held UV lamp, BlueView Transilluminator (470 nm centred, Vernier), Prior Lumen200 with 615/30 filter and 850 LED (Mouser Electronics).

[2] = Fluorescence quantum yield determination; format: physicochemical; details: DMSO; reference rhodamine B in ethanol or quinine sulfate in 0.5 M H2SO4
Description: as §1
Quantum yields were measured with Rhodamine B as reference (Φ=0.65) or quinine sulfate (Φ=0.55) in 0.5 M H2SO4. Fluorescence measurements were performed in 1 cm quartz cells with 5 μM samples in DMSO on spectrophotometer (SPEX FluoroLog-3) (slits 5×5). The fluorescence quantum yield, Φ (sample), were calculated according to equation as following:
[formula] Φ: quantum yield; I: integrated emission intensity; OD: optical density at the excitation wavelength; d: refractive index of solvents, dDMSO=1.478; dethanol=1.36; dwater=1.33.

[3] = tested on: adipocytes differentiated from 3T3-L1 cells; assay: Co-localization assay by confocal laser scanning microscopy; format: cell-based; details: 2 μM, 10 mins, after 488-nm laser for 30 s
Description: (§2) Before testing the utility of thio-caged fluorophores for investigating biological systems, the cytotoxicity of SNile Red in adipocytes was evaluated using Cell Counting Kit-8. At a concentration of 4 μM SNile Red, 90% of 3T3-L1 cells remained viable even after 24 hours (FIG. 10). Thio-caged dyes were then used to obtain subcellular structural data via fluorescence imaging of adipocytes. Nile Red and BODIPY are the fluorescent dyes most commonly used for lipid imaging (Corsaro and Pistara, 1998, Spiller et al., 1998, Tang et al., 2013). Confocal laser scanning microscopy (CLSM) was used to determine the specificity of SNile Red localization in adipocytes differentiated from 3T3-L1 cells. For colocalization studies, adipocytes were stained with 2 μM SNile Red and 100 nM BODIPY 493/503 for 10 mins.
3T3-L1 cells were differentiated to adipocytes according to the protocol from ATCC (Chemically-induced differentiation of at CC® CL-173TM (3T3-L1) using single-Component Commercially-available reagents). […]
After incubation of 2 μM SNile Red for 10 min, cells were washed with PBS (pH 7.4) twice and turned to confocal laser scanning microscope (CLSM). […] Differential interference contrast (DIC) and fluorescent images were processed and analyzed using ImageJ. The Pearson's Coefficient was calculated by ImageJ.

3T3-L1 cells = assay: CCK-8 assay (cytotoxicity); format: cell-based; details: 4 μM, 24 hours, Cell Counting Kit-8
Description: as §2
3T3-L1 cells were seeded in flat-bottomed 96-well plates, 1×10^4 cells per well, with 200 μL complete culture media for 24 h. […] After 2 hours, the absorbance at 450 nm was read by 96-well plates reader. The viability of […] cells was calculated by the following equation: CV=(As−Ab)/(Ac−Ab)×100%
CV stands for the viability of cells, As, Ac and Ab stand for the absorbance of cells containing SNile Red cell control (0 μM SNile Red) and blank control (wells containing neither cells nor SNile Red).

λem [1]: 616 nm | ø (fluorescence quantum yield) [2]: <0.001
SMILES: CCN(CC)c1ccc2nc3c4ccccc4c(=S)cc-3oc2c1 [SNile Red]
colocalization with BODIPY 493/503 labeling [3]: more than 90% | cells remaining viable (3T3-L1 cells): 90%

From patent US11913884B2, “Visible light-activated dyes and methods of use thereof” (William Marsh Rice University, priority 2019, dated 2024)
